Consider 7 compounds from article PMC8050276, “Estradiol analogs attenuate autophagy, cell migration and invasion by direct and selective inhibition of TRPML1, independent of estrogen receptors” (Scientific Reports, 2021).

A word on the IC50: it is the concentration that gives 50% inhibition.

Assay [1] concerns the target hTRPML1∆NC-YFP (Homo sapiens, UniProt Q9GZU1). It is filed as cell-based. Particulars: read-out: TRPML1 IC50; Fluo-4, 5 µM ML-SA1, Fig. 2a/4, Table S1. The procedure: (§1) To identify inhibitors of TRPML1 and TRPML3, the Spectrum Collection compound library (MS Discoveries; 2000 compounds) and additional 430 bioactive compounds were screened. To this end, fluorometric Ca^2+ influx assays were performed by using the calcium dye Fluo-4/AM (Invitrogen, Thermo Fisher Scientific, Waltham, MA, USA) and a custom-made fluorescence imaging plate reader built into a robotic liquid handling station (Freedom Evo 150, Tecan, Männedorf, Switzerland). […] Screening compounds dissolved in DMSO (10 mM) were prediluted in 150 mM NaCl, 20 mM HEPES, pH 7.4, to a concentration of 200 µM. For primary screens, HEK293 stably expressing plasma membrane-targeted TRPML1 or TRPML3 were trypsinized and resuspended in cell culture medium supplemented with 4 µM Fluo-4/AM. After incubation at 37 °C for 30 min, the cell suspension was briefly centrifuged resuspended in HBS, and dispensed into black pigmented, clear-bottom 384-well microwell plates (Greiner μClear, Frickenhausen, Germany). Plates were placed into the FLIPR and fluorescence signals (excitation 470 nm, emission 515 nm) were recorded with a Zyla 5.5 camera (Andor, Belfast, UK) and the μManager software like previously described. In a first video, compound libraries were successively added to the cells with the Tecan 96-tip multichannel arm to a final concentration of 20 µM to map unspecific effects like autofluorescence or toxicity. In a second step the agonist ML-SA1 was pipetted in each well and fluorescence signals were recorded for 10 min. Analyses were done by calculating fluorescence intensities for each well and background areas with ImageJ (National Institutes of Health, Bethesda, MD, USA). Finally, the background was subtracted and the fluorescence intensities were normalized to initial intensities (F/F0). Concentration response curves were generated by the same procedure but compounds were manually prediluted in 96-well plates containing HBS, now supplemented with 0.1% bovine serum albumin. Here data was fitted to a four-parameter Hill equation to obtain Imin, Imax, IC50), and the Hill coefficient n.

Assay [2] has as its system hTRPML1∆NC-YFP. It counts as cell-based, human. Particulars: for TRPML1:TRPML2 fold selectivity / TRPML1:TRPML3 fold selectivity: ratio of Fluo-4 IC50 values; for TRPML isoform selectivity profile: TRPML1, 2, 3 and TPC2, Fluo-4. The procedure: as §1
A further assay deals with T1, hTRPML2-YFP (Homo sapiens, UniProt Q8IZK6).
T1 construct: expressed in transfected cells
T1 sequence (Q8IZK6 1-566): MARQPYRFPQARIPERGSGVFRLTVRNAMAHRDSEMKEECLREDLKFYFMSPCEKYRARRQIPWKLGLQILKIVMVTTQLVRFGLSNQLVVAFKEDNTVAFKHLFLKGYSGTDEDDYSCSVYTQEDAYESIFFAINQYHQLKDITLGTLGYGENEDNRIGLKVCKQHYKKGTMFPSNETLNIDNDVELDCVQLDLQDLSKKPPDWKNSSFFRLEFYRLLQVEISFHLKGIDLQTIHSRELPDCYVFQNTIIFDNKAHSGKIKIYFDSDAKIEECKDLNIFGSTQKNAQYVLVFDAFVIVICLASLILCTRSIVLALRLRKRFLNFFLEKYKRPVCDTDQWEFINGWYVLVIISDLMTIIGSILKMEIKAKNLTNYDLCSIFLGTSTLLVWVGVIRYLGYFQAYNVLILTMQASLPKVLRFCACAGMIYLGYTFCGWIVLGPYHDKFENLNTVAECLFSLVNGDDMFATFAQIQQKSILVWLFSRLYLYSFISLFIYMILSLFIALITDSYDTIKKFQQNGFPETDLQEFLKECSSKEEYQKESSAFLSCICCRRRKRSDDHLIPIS
The assay can be described thus: Fluo-4 Ca2+ influx assay, HEK293 stably expressing hTRPML2-YFP, activated with ML-SA1. It is filed as cell-based. Conditions: TRPML2 IC50, Fluo-4, 5 µM ML-SA1, Table S1.

The next assay addresses T2, hTRPML3-YFP (Homo sapiens, UniProt Q8TDD5).
T2 construct: expressed in transfected cells
The assay can be described thus: Fluo-4 Ca2+ influx assay, HEK293 stably expressing hTRPML3-YFP, activated with ML-SA1. It is filed as cell-based. Particulars: Fluo-4, 5 µM ML-SA1, Table S1; read-out: TRPML3 IC50. On the procedure: To identify inhibitors of TRPML1 and TRPML3, the Spectrum Collection compound library (MS Discoveries; 2000 compounds) and additional 430 bioactive compounds were screened. To this end, fluorometric Ca^2+ influx assays were performed by using the calcium dye Fluo-4/AM (Invitrogen, Thermo Fisher Scientific, Waltham, MA, USA) and a custom-made fluorescence imaging plate reader built into a robotic liquid handling station (Freedom Evo 150, Tecan, Männedorf, Switzerland). All measurements were done in a HEPES buffered solution (HBS), containing 132 mM NaCl, 6 mM KCl, 1 mM MgCl2, 1 mM CaCl2, 5.5 mM D-glucose, 10 mM HEPES, pH 7.4. Screening compounds dissolved in DMSO (10 mM) were prediluted in 150 mM NaCl, 20 mM HEPES, pH 7.4, to a concentration of 200 µM. For primary screens, HEK293 stably expressing plasma membrane-targeted TRPML1 or TRPML3 were trypsinized and resuspended in cell culture medium supplemented with 4 µM Fluo-4/AM. After incubation at 37 °C for 30 min, the cell suspension was briefly centrifuged resuspended in HBS, and dispensed into black pigmented, clear-bottom 384-well microwell plates (Greiner μClear, Frickenhausen, Germany). Plates were placed into the FLIPR and fluorescence signals (excitation 470 nm, emission 515 nm) were recorded with a Zyla 5.5 camera (Andor, Belfast, UK) and the μManager software like previously described. In a first video, compound libraries were successively added to the cells with the Tecan 96-tip multichannel arm to a final concentration of 20 µM to map unspecific effects like autofluorescence or toxicity. In a second step the agonist ML-SA1 was pipetted in each well and fluorescence signals were recorded for 10 min. Analyses were done by calculating fluorescence intensities for each well and background areas with ImageJ (National Institutes of Health, Bethesda, MD, USA). Finally, the background was subtracted and the fluorescence intensities were normalized to initial intensities (F/F0). Concentration response curves were generated by the same procedure but compounds were manually prediluted in 96-well plates containing HBS, now supplemented with 0.1% bovine serum albumin. Here data was fitted to a four-parameter Hill equation to obtain Imin, Imax, IC50), and the Hill coefficient n.

The next assay has as its target T3, human ERα (Homo sapiens, UniProt P03372).
T3 construct: host or cells: Saccharomyces cerevisiae
The assay can be described thus: Yeast estrogen receptor assay (YES-assay), Saccharomyces cerevisiae transfected with human ERα, lacZ reporter. It is filed as cell-based. Particulars: 0.01-100 µM, 48 h. On the procedure: The yeast estrogen receptor assay (YES-assay) was provided by Dr. J.P. Sumpter (Brunel University, Uxbridge, UK; Routledge & Sumpter, 1996) and was used to determine the relative transactivation activity of the human ERα in response to test substances as previously described. Briefly, Saccharomyces cerevisiae stably transfected with a human ERα construct and an estrogen responsive element fused to the reporter gene lacZ encoding for β-galactosidase were treated with the test substances for 48 h. The β-galactosidase enzymatic activity was measured in a colorimetric assay using the substrate chlorophenol red β-D-galactopyranoside (Roche Diagnostics, Mannheim Germany). Formation of chlorophenol red was measured at 540 nm. For the test, all compounds were diluted in DMSO. 17β-estradiol (10 nM; Sigma, Deisenhofen, Germany) served as positive control and DMSO was used as vehicle control. All compounds, were dose dependently tested in a concentration range of 0.01–100 µM, using technical quadruplicates and biological triplicates.

Structures are written as SMILES. “Also recorded” adds a separate entry of the source.

T2 sequence (Q8TDD5 whole entry): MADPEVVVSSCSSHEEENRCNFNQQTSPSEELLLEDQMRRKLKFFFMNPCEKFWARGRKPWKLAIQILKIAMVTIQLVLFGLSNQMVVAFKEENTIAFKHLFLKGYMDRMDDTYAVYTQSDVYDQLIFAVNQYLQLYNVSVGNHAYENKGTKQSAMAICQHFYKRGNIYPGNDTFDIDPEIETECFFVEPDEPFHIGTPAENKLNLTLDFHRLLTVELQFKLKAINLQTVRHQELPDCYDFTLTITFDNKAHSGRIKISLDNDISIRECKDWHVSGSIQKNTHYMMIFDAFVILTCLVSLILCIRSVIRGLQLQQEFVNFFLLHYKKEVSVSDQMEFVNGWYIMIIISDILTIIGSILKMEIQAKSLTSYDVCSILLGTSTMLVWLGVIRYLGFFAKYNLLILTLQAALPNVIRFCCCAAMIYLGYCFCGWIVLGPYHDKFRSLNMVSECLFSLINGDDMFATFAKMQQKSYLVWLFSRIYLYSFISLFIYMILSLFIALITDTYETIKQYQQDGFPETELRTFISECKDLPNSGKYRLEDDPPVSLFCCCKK
Sequence of hTRPML1∆NC-YFP (Homo sapiens, UniProt Q9GZU1) (Q9GZU1 whole entry): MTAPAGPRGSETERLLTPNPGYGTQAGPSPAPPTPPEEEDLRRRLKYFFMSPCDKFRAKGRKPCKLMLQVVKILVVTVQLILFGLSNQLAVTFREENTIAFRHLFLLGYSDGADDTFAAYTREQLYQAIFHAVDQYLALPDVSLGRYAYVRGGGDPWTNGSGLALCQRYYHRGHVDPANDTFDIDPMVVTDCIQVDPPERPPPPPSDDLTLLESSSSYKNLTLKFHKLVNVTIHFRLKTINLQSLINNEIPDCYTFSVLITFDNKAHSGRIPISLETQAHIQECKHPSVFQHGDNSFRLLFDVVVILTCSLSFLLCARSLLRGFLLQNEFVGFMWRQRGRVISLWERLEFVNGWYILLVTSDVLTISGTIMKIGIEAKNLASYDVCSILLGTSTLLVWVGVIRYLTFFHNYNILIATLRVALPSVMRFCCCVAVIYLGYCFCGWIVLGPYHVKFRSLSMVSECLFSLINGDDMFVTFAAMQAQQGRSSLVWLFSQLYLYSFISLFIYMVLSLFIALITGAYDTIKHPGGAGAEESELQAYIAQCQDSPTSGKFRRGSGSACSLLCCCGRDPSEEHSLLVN
T3 sequence (P03372 whole entry): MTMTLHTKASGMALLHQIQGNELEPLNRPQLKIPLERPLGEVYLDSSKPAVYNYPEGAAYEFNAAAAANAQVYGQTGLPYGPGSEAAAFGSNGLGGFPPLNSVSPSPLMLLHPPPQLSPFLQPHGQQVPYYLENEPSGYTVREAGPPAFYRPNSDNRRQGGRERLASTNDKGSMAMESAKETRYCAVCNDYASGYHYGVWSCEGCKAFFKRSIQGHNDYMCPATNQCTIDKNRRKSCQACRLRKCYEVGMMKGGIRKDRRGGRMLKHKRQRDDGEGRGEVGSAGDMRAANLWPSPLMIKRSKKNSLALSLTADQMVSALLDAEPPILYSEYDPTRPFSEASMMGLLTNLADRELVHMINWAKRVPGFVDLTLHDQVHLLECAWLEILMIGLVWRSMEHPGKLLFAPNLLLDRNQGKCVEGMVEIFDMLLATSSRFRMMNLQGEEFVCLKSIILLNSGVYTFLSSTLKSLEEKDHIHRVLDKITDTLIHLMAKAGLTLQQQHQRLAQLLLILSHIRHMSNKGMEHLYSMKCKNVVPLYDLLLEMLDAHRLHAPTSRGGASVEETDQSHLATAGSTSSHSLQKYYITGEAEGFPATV

Regarding `C[C@]12CC[C@@H]3c4ccc(OC(F)F)cc4CC[C@H]3[C@@H]1CC[C@@H]2O` [PRU-4], the values for the IC50 at hTRPML1∆NC-YFP [1], against hTRPML2-YFP and at hTRPML3-YFP were 0.5 µM, 5.23 µM and 4.78 µM, respectively. For the same compound, in the assay on hTRPML1∆NC-YFP [2], the “TRPML1:TRPML2 fold selectivity” value is 10.25 fold. The “TRPML1:TRPML3 fold selectivity” value in the assay with hTRPML1∆NC-YFP [2] was determined as 9.37 fold.
For the compound `CCOc1ccc2c(c1)CC[C@@H]1[C@@H]2CC[C@]2(C)[C@@H](O)CC[C@@H]12` [PRU-5], the IC50 at hTRPML1∆NC-YFP [1] worked out at 0.8 µM; against hTRPML2-YFP, 3.38 µM; at hTRPML3-YFP, 14.9 µM. Further, in the assay on hTRPML1∆NC-YFP [2], the “TRPML1:TRPML2 fold selectivity” value is given as 4.45 fold. Besides, the “TRPML1:TRPML3 fold selectivity” value in the assay with hTRPML1∆NC-YFP [2] came out at 19.58 fold.
Consider `CC(C)Oc1ccc2c(c1)CC[C@@H]1[C@@H]2CC[C@]2(C)[C@@H](O)CC[C@@H]12` [PRU-6], for which the figures for the 50% inhibitory concentration (IC50) on hTRPML1∆NC-YFP [1], at hTRPML2-YFP and on hTRPML3-YFP were 0.41 µM, 3.57 µM and 7.87 µM, respectively. Also, the “TRPML1:TRPML2 fold selectivity” value in the assay on hTRPML1∆NC-YFP [2] is on record as 8.71 fold. The “TRPML1:TRPML3 fold selectivity” value in the assay with hTRPML1∆NC-YFP [2] was 19.2 fold.
For the compound `C=CCOc1ccc2c(c1)CC[C@@H]1[C@@H]2CC[C@]2(C)[C@@H](O)CC[C@@H]12` [PRU-7], the IC50 on hTRPML1∆NC-YFP [1] is 0.73 µM; against hTRPML2-YFP, 2.64 µM; on hTRPML3-YFP, 15.2 µM. Also, in the assay with hTRPML1∆NC-YFP [2], the “TRPML1:TRPML2 fold selectivity” value was 3.62 fold. The “TRPML1:TRPML3 fold selectivity” value in the assay on hTRPML1∆NC-YFP [2] came to 20.82 fold.
Take `C[C@]12CC[C@@H]3c4ccc(Oc5ccccc5)cc4CC[C@H]3[C@@H]1CC[C@@H]2O` [PRU-8]: the results for the IC50 on hTRPML1∆NC-YFP [1], against hTRPML2-YFP and at hTRPML3-YFP were 0.72 µM, 15.3 µM and 38.6 µM, respectively. Further, the “TRPML isoform selectivity profile” value with hTRPML1∆NC-YFP [2] is listed as “further improved selectivity profile compared to EDME; also recorded: very good selectivity profile”. Moreover, the “TRPML1:TRPML2 fold selectivity” value with hTRPML1∆NC-YFP [2] turned out to be 21.28 fold. The “TRPML1:TRPML3 fold selectivity” value with hTRPML1∆NC-YFP [2] amounted to 53.68 fold. Besides, the “effect/efficacy at ERα” value on human ERα is on record as “strong effect”.
For the compound `C[C@]12CC[C@@H]3c4ccc(OS(=O)(=O)C(F)(F)F)cc4CC[C@H]3[C@@H]1CC[C@@H]2O` [PRU-9], the IC50 at hTRPML1∆NC-YFP [1] was found to be 0.17 µM. In addition, in the assay on hTRPML1∆NC-YFP [2], the “TRPML isoform selectivity profile” value was “further improved selectivity profile compared to EDME”, the “TRPML1:TRPML2 fold selectivity” value worked out at 14.88 fold and the “TRPML1:TRPML3 fold selectivity” value stood at 35.06 fold. The IC50 against hTRPML2-YFP came to 2.53 µM. Besides, the IC50 on hTRPML3-YFP was determined as 5.96 µM.
As for `C[C@]12CC[C@@H]3c4ccc(-c5ccccc5)cc4CC[C@H]3[C@@H]1CC[C@@H]2O` [PRU-11], the IC50 on hTRPML1∆NC-YFP [1] is 0.44 µM; against hTRPML2-YFP, 2.4 µM; on hTRPML3-YFP, 32.1 µM. Besides, the “TRPML1:TRPML2 fold selectivity” value in the assay with hTRPML1∆NC-YFP [2] amounted to 5.45 fold. In addition, the “TRPML1:TRPML3 fold selectivity” value with hTRPML1∆NC-YFP [2] came out at 72.98 fold.
